Drawing on ChEMBL document CHEMBL3507680, “University of Dundee, Gates Library screen for HepG2 cell viability”, this text covers cytotoxicity for 39 compounds.

The structures appear in SMILES notation.

This data set in a line: Human HepG2 cell viability assay in 384 well format. Details: dose 125 nL, time 70.5 hour; concentration not given beside the values. The conditions noted are these: HepG2 cells, read-out: Inhibition. It is filed as toxicity, cell-based.
Consider `CC(Cn1cncn1)NC(=O)Nc1ccc(COC2CCCC2)cc1` (centres undefined), for which the cytotoxicity at 70.5 h is -1.86%.

On to `COc1cccc(OCCNC(=O)CN2CCN(C)CC2C)c1` (centres undefined), for which the cytotoxicity at 70.5 h was -13.4%.

As for `O=C(CCSc1ccc2c(c1)OCCO2)NCC1CCS(=O)(=O)C1` (centres undefined), the cytotoxicity at 70.5 h was -3.43%.

As for `Cc1nc(C)n(CC2CCCN(Cc3noc(C)n3)C2)n1` (centres undefined), the cytotoxicity at 70.5 h was -5.88%.

On to `CN(C)C[C@@H]1CN(C(=O)CCC2CCCC2)C[C@@H]1CO`, for which the cytotoxicity at 70.5 h was 20.2%.

As to `CS(=O)(=O)N1CCOCC2(CCN(Cc3ccc[nH]3)CC2)C1`, the cytotoxicity at 70.5 h is -5.4%.

Consider `CNS(=O)(=O)Cc1cccc(CNCc2ccsc2)c1`, for which the cytotoxicity at 70.5 h was -8.06%.

As to `COc1cc(CN2CCN(CC3CC3)[C@@H]3CS(=O)(=O)C[C@@H]32)cc(OC)c1`, the cytotoxicity at 70.5 h was found to be 3.14%.

In the case of `COc1cccc(CC(C)NC(=O)NCCNC(C)=O)c1` (centres undefined), the cytotoxicity at 70.5 h was -1.81%.

On to `Cc1noc(C)c1CN(C)Cc1cnc(N2CCOCC2)nc1`, for which the cytotoxicity at 70.5 h was -4.31%.

On to `COCCNC(=O)C1CCCN(c2ccc3nncn3n2)C1` (centres undefined), for which the cytotoxicity at 70.5 h was 9.49%.

On to `N#CCCn1nc(C(F)(F)F)c2c1CCCC2`, for which the cytotoxicity at 70.5 h is -6.63%.

As to `CCCc1n[nH]c(C2CN(C(=O)c3n[nH]c4ccccc34)CCO2)n1` (centres undefined), the cytotoxicity at 70.5 h was -6.7%.

Regarding `CC(C)c1nn(C)c(N(C)C)c1CNCc1cscn1`, the cytotoxicity at 70.5 h is -5.21%.

For `O=C(c1sccc1C1CC1)N1CCN(CC(F)(F)F)CC1`, the cytotoxicity at 70.5 h is -1.63%.

As for `Cn1cc(CN2CC[C@H]3CO[C@H](CNc4ncccn4)[C@H]3C2)cn1`, the cytotoxicity at 70.5 h amounted to 20.3%.

For `CCN1CCC(NC(=O)CN2CCCC2Cn2cc(C)cn2)CC1` (centres undefined), the cytotoxicity at 70.5 h turned out to be 0.649%.

`COCC[C@]1(O)CCN(C(=O)CCc2cnn(C)c2)C[C@H]1C`: the cytotoxicity at 70.5 h is -7.34%.

Regarding `COCCCNS(=O)(=O)c1ccc(N2CCCCS2(=O)=O)cc1`, the cytotoxicity at 70.5 h is -9.62%.

For `CSCCC(NC(N)=O)C(=O)NCc1ccc(-n2cccn2)cc1` (centres undefined), the cytotoxicity at 70.5 h is -6.9%.

Consider `Cc1cc(C)n(C2CN(C(=O)CN3C(=O)CSc4ccccc43)C2)n1`, for which the cytotoxicity at 70.5 h was determined as 0.11%.

In the case of `CCc1c(-c2ccccc2)nc2c(c(C)c(C)n2CCN(C)C)c1N`, the cytotoxicity at 70.5 h worked out at 15.2%.

With `Fc1ccc(CN2CCC(F)(F)C3(CCN(c4cnccn4)C3)C2)cc1` (centres undefined), the cytotoxicity at 70.5 h is -9.88%.

As for `CCC(NC1CCCC1)c1ccc(S(C)(=O)=O)cc1` (centres undefined), the cytotoxicity at 70.5 h is -12.8%.

On to `Cc1cnc(CN2CC=C(c3c[nH]c4ncccc34)CC2)o1`, for which the cytotoxicity at 70.5 h stood at 5.53%.

As for `CN(C)CC1(O)CCCN(C(=O)CCc2nc3cccnc3n2C)C1` (centres undefined), the cytotoxicity at 70.5 h is -9.56%.

On to `COc1ccc(CCC(=O)NCc2cc(C)on2)cc1`, for which the cytotoxicity at 70.5 h is 8.95%.

Consider `Cc1nc(CN2CCO[C@@H]3CN(Cc4nccs4)C[C@@H]3C2)cs1`, for which the cytotoxicity at 70.5 h is -1.91%.

For `Cc1ccc(S(=O)(=O)N2C[C@H](C3CC3)[C@@H](N)C2)cc1F`, the cytotoxicity at 70.5 h was -3.15%.

As to `CCN1CC(=O)NCC12CCN(C(=O)c1ccco1)C2` (centres undefined), the cytotoxicity at 70.5 h was -3.25%.

As to `c1cnc2c(c1)cc(C1CCOCC1)n2CCN1CCOCC1`, the cytotoxicity at 70.5 h was -11.3%.

Consider `CC[C@H](Cn1ncc2ccccc2c1=O)NC(=O)c1cnc(C)cn1`, for which the cytotoxicity at 70.5 h is -12.4%.

Regarding `CCC[C@@H]1CN(C(=O)c2cc(-c3cccs3)n(C)n2)C[C@H]1N(C)C`, the cytotoxicity at 70.5 h is -8.43%.

`COCc1nc(C(=O)NS(=O)(=O)c2ccc(OC)c(C)c2)cs1`: the cytotoxicity at 70.5 h is -13.2%.

In the case of `Fc1cccc(-n2cccn2)c1NCc1nnc(C2CC2)o1`, the cytotoxicity at 70.5 h is -2.54%.

For `Cc1cccc(N2CCN(S(=O)(=O)CCN)CC2)c1`, the cytotoxicity at 70.5 h was found to be 21.4%.

Consider `Cc1nc(C)n(C2CCCN(C(=O)c3cnc[nH]3)C2)n1` (centres undefined), for which the cytotoxicity at 70.5 h is -7.11%.

As to `Cc1ccc(NC(=O)CNC(C)Cc2ccsc2)cc1F` (centres undefined), the cytotoxicity at 70.5 h is -8.47%.

With `Cc1cc(=O)[nH]c(=O)n1Cc1ncc(-c2ccccc2C(=O)O)s1`, the cytotoxicity at 70.5 h is -0.441%.
